What was measured:
[1] = system: bedstraw; test: Test B pre/postemergence bedstraw; type: in vivo, Galium aparine
Procedure, shortened: (§1)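 Herbicidal effect was estimated by eye on a ten-point control scale after plants spent twelve to sixteen days in a greenhouse following soil or foliar treatment. Foliar sprays targeted plants at one to four leaves; all doses were formulated in a non-phytotoxic solvent with surfactant.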

[2] = system: blackgrass; test: Test B pre/postemergence blackgrass; type: in vivo, Alopecurus myosuroides
Procedure, shortened: as §1

[3] = system: surinam grass; test: Test B pre/postemergence surinam grass; type: in vivo, Brachiaria decumbens
Procedure, shortened: as §1

[4] = system: cocklebur; test: Test B pre/postemergence cocklebur; type: in vivo, Xanthium strumarium
Procedure, shortened: as §1

[5] = system: corn; test: Test B pre/postemergence corn; type: in vivo, Zea mays
Procedure, shortened: as §1

[6] = system: crabgrass; test: Test B pre/postemergence crabgrass; type: in vivo, Digitaria sanguinalis
Procedure, shortened: as §1

[7] = system: giant foxtail; test: Test B pre/postemergence giant foxtail; type: in vivo, Setaria faberii
Procedure, shortened: as §1

[8] = system: morningglory; test: Test B pre/postemergence morningglory; type: in vivo, Ipomoea hederacea
Procedure, shortened: as §1

[9] = system: pigweed; test: Test B pre/postemergence pigweed; type: in vivo, Amaranthus retroflexus
Procedure, shortened: as §1

[10] = system: rape; test: Test B pre/postemergence rape; type: in vivo, Brassica napus
Procedure, shortened: as §1

[11] = system: soybean; test: Test B pre/postemergence soybean; type: in vivo, Glycine max
Procedure, shortened: as §1

[12] = system: sugar beet; test: Test B pre/postemergence sugar beet; type: in vivo, Beta vulgaris
Procedure, shortened: as §1

[13] = system: velvetleaf; test: Test B pre/postemergence velvetleaf; type: in vivo, Abutilon theophrasti
Procedure, shortened: as §1

[14] = system: wheat; test: Test B pre/postemergence wheat; type: in vivo, Triticum aestivum
Procedure, shortened: as §1

[15] = system: wild oat; test: Test B pre/postemergence wild oat; type: in vivo, Avena fatua
Procedure, shortened: as §1

[16] = system: purple nutsedge; test: Test B pre/postemergence purple nutsedge; type: in vivo, Cyperus rotundus
Procedure, shortened: as §1

[17] = Postemergence, Rate 250 g/ha, scale of 0 to 10, 0 is no effect, 10 is complete control
[18] = Preemergence, Rate 62 g/ha, scale of 0 to 10 where 0 is no effect and 10 is complete control
[19] = Preemergence, Rate 125 g/ha, scale of 0 to 10 where 0 is no effect and 10 is complete control
[20] = Preemergence, Rate 250 g/ha, scale 0 to 10 (0 no effect, 10 complete control)
[21] = Preemergence, Rate 500 g/ha, scale of 0 to 10 where 0 is no effect and 10 is complete control
[22] = Rate 500 g/ha, Postemergence, scale 0 to 10, 0 is no effect, 10 is complete control
[23] = Postemergence, Rate 62 g/ha, scale 0 to 10, 0 is no effect, 10 is complete control
[24] = Postemergence, Rate 125 g/ha, scale of 0 to 10 where 0 is no effect and 10 is complete control

CC(C)N(C(=O)n1oc(=O)n(Cc2nnc(Cl)s2)c1=O)c1ccccc1 [Compound 654]
0: Bedstraw plant response rating [1, 17] | Bedstraw plant response rating [1, 18] | Bedstraw plant response rating [1, 19] | Plant response rating, Bedstraw [1, 20] | Plant response rating, Bedstraw [1, 21] | Bedstraw plant response rating [1, 22] | Plant response rating, Blackgrass [2, 23] | Blackgrass plant response rating [2, 24] | Blackgrass plant response rating [2, 17] | Blackgrass plant response rating [2, 18] | Blackgrass plant response rating [2, 19] | Blackgrass plant response rating [2, 22] | Plant response rating, B. signalgrass [3, 23] | Plant response rating, B. signalgrass [3, 24] | B. signalgrass plant response rating [3, 17] | B. signalgrass plant response rating [3, 18] | B. signalgrass plant response rating [3, 19] | Plant response rating, B. signalgrass [3, 20] | B. signalgrass plant response rating [3, 22] | Plant response rating, Cocklebur [4, 23] | Cocklebur plant response rating [4, 24] | Cocklebur plant response rating [4, 17] | Cocklebur plant response rating [4, 18] | Cocklebur plant response rating [4, 19] | Plant response rating, Cocklebur [4, 20] | Plant response rating, Cocklebur [4, 21] | Cocklebur plant response rating [4, 22] | Plant response rating, Corn [5, 23] | Corn plant response rating [5, 24] | Corn plant response rating [5, 17] | Corn plant response rating [5, 18] | Corn plant response rating [5, 19] | Plant response rating, Corn [5, 20] | Plant response rating, Corn [5, 21] | Corn plant response rating [5, 22] | Plant response rating, Crabgrass [6, 23] | Crabgrass plant response rating [6, 24] | Crabgrass plant response rating [6, 18] | Plant response rating, Giant foxtail [7, 23] | Giant foxtail plant response rating [7, 18] | Morningglory plant response rating [8, 18] | Morningglory plant response rating [8, 19] | Plant response rating, Morningglory [8, 20] | Plant response rating, Morningglory [8, 21] | Plant response rating, Redroot pigweed [9, 23] | Redroot pigweed plant response rating [9, 24] | Redroot pigweed plant response rating [9, 18] | Redroot pigweed plant response rating [9, 19] | Redroot pigweed plant response rating [9, 22] | Plant response rating, Rape [10, 23] | Rape plant response rating [10, 24] | Rape plant response rating [10, 18] | Rape plant response rating [10, 19] | Plant response rating, Rape [10, 20] | Plant response rating, Rape [10, 21] | Rape plant response rating [10, 22] | Plant response rating, Soybean [11, 23] | Soybean plant response rating [11, 24] | Soybean plant response rating [11, 18] | Soybean plant response rating [11, 19] | Plant response rating, Soybean [11, 20] | Plant response rating, Soybean [11, 21] | Soybean plant response rating [11, 22] | Plant response rating, Sugarbeets [12, 23] | Sugarbeets plant response rating [12, 24] | Sugarbeets plant response rating [12, 18] | Sugarbeets plant response rating [12, 19] | Plant response rating, Sugarbeets [12, 20] | Plant response rating, Sugarbeets [12, 21] | Sugarbeets plant response rating [12, 22] | Plant response rating, Velvetleaf [13, 23] | Velvetleaf plant response rating [13, 24] | Velvetleaf plant response rating [13, 18] | Velvetleaf plant response rating [13, 19] | Plant response rating, Velvetleaf [13, 20] | Plant response rating, Velvetleaf [13, 21] | Velvetleaf plant response rating [13, 22] | Plant response rating, Wheat [14, 23] | Wheat plant response rating [14, 24] | Wheat plant response rating [14, 18] | Wheat plant response rating [14, 19] | Plant response rating, Wheat [14, 20] | Plant response rating, Wheat [14, 21] | Wheat plant response rating [14, 22] | Plant response rating, Wild oats [15, 23] | Wild oats plant response rating [15, 24] | Wild oats plant response rating [15, 18] | Wild oats plant response rating [15, 19] | Plant response rating, Wild oats [15, 20] | Wild oats plant response rating [15, 22] | Plant response rating, Nutsedge [16, 23] | Nutsedge plant response rating [16, 24] | Nutsedge plant response rating [16, 18] | Plant response rating, Nutsedge [16, 20] | Plant response rating, Nutsedge [16, 21]
7: Plant response rating, Blackgrass [2, 21] | Plant response rating, B. signalgrass [3, 21] | Plant response rating, Crabgrass [6, 20] | Crabgrass plant response rating [6, 22] | Giant foxtail plant response rating [7, 22]
2: Plant response rating, Blackgrass [2, 20] | Crabgrass plant response rating [6, 17] | Giant foxtail plant response rating [7, 24] | Plant response rating, Wild oats [15, 21]
4: Morningglory plant response rating [8, 24]
6: Giant foxtail plant response rating [7, 19]
9: Plant response rating, Crabgrass [6, 21] | Plant response rating, Giant foxtail [7, 20] | Plant response rating, Giant foxtail [7, 21]
3: Crabgrass plant response rating [6, 19] | Plant response rating, Morningglory [8, 23] | Plant response rating, Redroot pigweed [9, 20]
5: Giant foxtail plant response rating [7, 17] | Plant response rating, Redroot pigweed [9, 21]
10: Morningglory plant response rating [8, 17] | Morningglory plant response rating [8, 22]
